One test addresses T1, Stat3:Stat3 (Mus musculus, UniProt P42227).
T1 construct: endogenous in cells; host or cells: EGF-stimulated fibroblasts (nuclear extract)
As to the kind of experiment: EMSA, disruption of Stat3:Stat3 DNA-binding activity in vitro (hSIE probe). The class given is biochemical. To be noted: for Level of DNA-binding activity of Stat3 (EMSA): EGF-stimulated fibroblast nuclear extracts, 30 min preincubation, FIG. 1A. The protocol:
(§1) FIGS. 1A-D are photographs showing EMSA analyses of DNA-binding activities and effects of platinum complexes. Nuclear extracts containing activated Stat1, Stat3 and Stat5 are treated with the indicated concentrations of platinum complex ISSCPA-1, ISSCPA-3, ISSCPA-7, or PtCl4 for 30 min at room temperature prior to incubation with radiolabeled oligonucleotide probes. […] Positions of complexes of DNA with STAT, E2F1 or NFκB (p65, p50) in gel are labeled. Control lanes represent nuclear extracts that are not pre-incubated with platinum complexes.
(§2) Nuclear extracts were prepared from cell lines and used for EMSA as previously described (Turkson et al., 1998; Yu et al., 1995; Garcia et al., 1997). In some cases, cells were pre-treated with platinum complexes for the indicated times prior to harvesting. Where cells were stimulated with EGF (6 ng/ml), duration of treatment was 15 min. Nuclear extracts were pre-incubated with compounds for 30 min at room temperature prior to incubation with radiolabeled probe. The ^32P-radiolabeled oligonucleotide probes used are hSIE (high affinity sis-inducible element, m67 variant, 5′-[…]-3′) (SEQ ID NO:1) that binds both Stat1 and Stat3 (Garcia et al., 1997; Wagner et al., 1990), MGFe (mammary gland factor element from the bovine β-casein gene promoter, 5′-AGATTTCTAGGAATTCAA-3′) (SEQ ID NO:2) that binds Stat1 and Stat5 (Gouilleux et al., 1995; Seidel et al., 1995), the NF-κB binding oligo (5′-[…]-3′) (SEQ ID NO:3), and the oligonucleotide sequence from the DHFR promoter that binds E2F1.
(§3) Platinum compounds were evaluated for inhibitory activity against STAT DNA-binding in vitro.
In general terms: In EMSA bound probe runs differently from free probe, usually more slowly.

A further test deals with B16 melanoma. Kind of test: Mouse model of melanoma tumor, intra-tumoral injection. The class given is in vivo. Particulars: direct intra-tumoral injection, monitored up to 9 days, FIG. 8. As for the experimental part:
(§4) FIGS. 8A-C show tumor regression induced by platinum (IV) chloride. Tumor models in mice using B16 melanoma and CT26 colon tumors both of which harbor constitutively-active Stat3 were treated by intra-tumoral injection with doses of platinum (IV) chloride and tumor sizes monitored every other day for up to 9 days. FIG. 8A is a photograph showing extracted tumor tissues were analyzed for Stat3 activity in in vitro DNA-binding assays and EMSA analysis. FIG. 8B and FIG. 8C show tumor sizes monitored by calipers plotted against days of treatment.
(§5) The antitumor efficacy of platinum (IV) chloride of the invention using mouse models of melanoma and colon tumors was evaluated. Established tumors were directly injected with doses of platinum (IV) chloride and tumor size subsequently monitored. […] In parallel studies, treated tumors were extracted and Stat3 activity determined on the basis of DNA-binding activity analyzed by EMSA. […] Together, the findings support inhibition of constitutively-active STATs by platinum (IV) chloride leads to regression of melanoma and colon tumors.

For the next test, the system named is CT26 colon tumors. As to the kind of experiment: Mouse model of colon tumor, intra-tumoral injection. In kind it is in vivo. To be noted: direct intra-tumoral injection, monitored up to 9 days, FIG. 8. The protocol:
as §4, §5

For test [1], the target named is T2, Stat3 (Mus musculus, UniProt P42227).
T2 construct: from tissue; host or cells: extracted B16 melanoma / CT26 colon tumour tissue from mice
Kind of test: Stat3 DNA-binding activity (EMSA) in extracted treated tumors. The class given is in vivo. Particulars: FIG. 8A. As for the experimental part:
as §4, §5

Test [2] has as its system Stat3. As to the kind of experiment: EMSA of nuclear extracts from treated cells with constitutively-activated Stat3. In kind it is cell-based, mouse and human. Particulars: Src-transformed fibroblasts and human tumor cells, FIG. 3. As for the experimental part: FIG. 3 is a photograph showing the evaluation of effects of platinum complexes on Stat3 activation analyzed by EMSA. Nuclear extracts prepared from malignant cells that contain constitutively-activated Stat3 and treated with platinum complexes for the indicated times were analyzed by EMSA using hSIE oligonucleotide probe. Extracts were prepared from v-Src-transformed NIH3T3/v-Src; human breast carcinoma MDA-MB-231; MDA-MB-435; and […]. Position of Stat3:DNA complex in gel is shown.
as §2, with “5′-[…]-3′)” for “5′-AGATTTCTAGGAATTCAA-3′)”
The effects of platinum complexes on persistent activation of Stat3 in Src-transformed fibroblasts and human tumor cells were investigated. […] These studies were then extended to evaluate the effects of the platinum complexes on Stat3 transcriptional activity.

Another test addresses T3, Stat1:Stat3 (Mus musculus, UniProt P42225+P42227).
T3 construct: endogenous in cells; host or cells: EGF-stimulated fibroblasts (nuclear extract)
As to the kind of experiment: EMSA, disruption of Stat1:Stat3 DNA-binding activity in vitro (hSIE probe). In kind it is biochemical. As for the experimental part: as §1, §2, §3

In the next test the target is T4, Stat1:Stat1 (Mus musculus, UniProt P42225).
T4 construct: endogenous in cells; host or cells: EGF-stimulated fibroblasts (nuclear extract)
T4 sequence (P42225 2-749 limits assumed): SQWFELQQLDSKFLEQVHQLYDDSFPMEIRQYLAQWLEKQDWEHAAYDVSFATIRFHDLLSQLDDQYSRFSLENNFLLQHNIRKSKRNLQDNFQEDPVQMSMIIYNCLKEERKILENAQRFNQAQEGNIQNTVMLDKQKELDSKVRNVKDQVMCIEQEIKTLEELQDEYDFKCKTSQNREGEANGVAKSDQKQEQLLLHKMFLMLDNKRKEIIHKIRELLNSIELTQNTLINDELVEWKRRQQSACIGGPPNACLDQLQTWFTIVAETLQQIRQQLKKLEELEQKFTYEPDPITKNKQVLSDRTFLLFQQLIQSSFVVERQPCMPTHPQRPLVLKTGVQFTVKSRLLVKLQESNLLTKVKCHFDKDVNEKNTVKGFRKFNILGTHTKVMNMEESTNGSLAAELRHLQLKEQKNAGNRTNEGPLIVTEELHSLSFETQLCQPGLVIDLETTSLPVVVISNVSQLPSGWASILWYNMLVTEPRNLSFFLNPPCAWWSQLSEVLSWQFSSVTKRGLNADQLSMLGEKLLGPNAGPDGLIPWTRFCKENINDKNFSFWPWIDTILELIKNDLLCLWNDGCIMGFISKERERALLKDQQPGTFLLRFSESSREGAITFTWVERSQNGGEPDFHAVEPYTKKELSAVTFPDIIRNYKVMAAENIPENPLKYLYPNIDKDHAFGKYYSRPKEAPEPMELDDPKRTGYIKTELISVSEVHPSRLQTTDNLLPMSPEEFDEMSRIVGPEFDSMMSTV
Kind of test: EMSA, disruption of Stat1:Stat1 DNA-binding activity in vitro (hSIE probe). The class given is biochemical. As for the experimental part: as §1, §2, §3

A further test deals with Stat5. As to the kind of experiment: EMSA, Stat5 DNA-binding activity in vitro (MGFe probe). The class given is biochemical, mouse. To be noted: FIG. 1B. As for the experimental part: as §1, §2, §3

The record followed here is patent US7763585B2, “Methods for inhibiting tumor cell proliferation” (priority 2003, dated 2010).

pIC50: −log10 of the molar value.

T1 sequence (P42227 2-770 limits assumed): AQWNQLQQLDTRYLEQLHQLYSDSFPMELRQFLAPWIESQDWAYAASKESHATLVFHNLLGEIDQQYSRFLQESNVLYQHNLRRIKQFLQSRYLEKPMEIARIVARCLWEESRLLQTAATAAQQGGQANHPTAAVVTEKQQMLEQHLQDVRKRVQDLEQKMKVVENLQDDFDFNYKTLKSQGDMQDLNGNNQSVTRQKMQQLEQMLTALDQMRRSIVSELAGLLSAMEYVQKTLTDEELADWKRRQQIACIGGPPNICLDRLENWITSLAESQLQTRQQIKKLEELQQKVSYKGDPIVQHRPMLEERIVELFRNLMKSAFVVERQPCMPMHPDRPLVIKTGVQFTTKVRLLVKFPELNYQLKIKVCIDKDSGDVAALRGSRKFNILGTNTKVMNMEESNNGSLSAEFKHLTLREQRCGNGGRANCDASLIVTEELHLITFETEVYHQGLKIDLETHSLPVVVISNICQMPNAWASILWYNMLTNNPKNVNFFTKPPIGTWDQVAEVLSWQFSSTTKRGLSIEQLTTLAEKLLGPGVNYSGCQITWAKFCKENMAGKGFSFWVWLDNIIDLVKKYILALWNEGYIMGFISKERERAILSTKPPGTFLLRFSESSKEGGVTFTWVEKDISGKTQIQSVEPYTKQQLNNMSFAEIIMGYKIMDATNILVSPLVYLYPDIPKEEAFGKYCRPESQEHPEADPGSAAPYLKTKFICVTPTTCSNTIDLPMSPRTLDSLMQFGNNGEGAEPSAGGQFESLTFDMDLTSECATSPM
T2 sequence (P42227 whole entry): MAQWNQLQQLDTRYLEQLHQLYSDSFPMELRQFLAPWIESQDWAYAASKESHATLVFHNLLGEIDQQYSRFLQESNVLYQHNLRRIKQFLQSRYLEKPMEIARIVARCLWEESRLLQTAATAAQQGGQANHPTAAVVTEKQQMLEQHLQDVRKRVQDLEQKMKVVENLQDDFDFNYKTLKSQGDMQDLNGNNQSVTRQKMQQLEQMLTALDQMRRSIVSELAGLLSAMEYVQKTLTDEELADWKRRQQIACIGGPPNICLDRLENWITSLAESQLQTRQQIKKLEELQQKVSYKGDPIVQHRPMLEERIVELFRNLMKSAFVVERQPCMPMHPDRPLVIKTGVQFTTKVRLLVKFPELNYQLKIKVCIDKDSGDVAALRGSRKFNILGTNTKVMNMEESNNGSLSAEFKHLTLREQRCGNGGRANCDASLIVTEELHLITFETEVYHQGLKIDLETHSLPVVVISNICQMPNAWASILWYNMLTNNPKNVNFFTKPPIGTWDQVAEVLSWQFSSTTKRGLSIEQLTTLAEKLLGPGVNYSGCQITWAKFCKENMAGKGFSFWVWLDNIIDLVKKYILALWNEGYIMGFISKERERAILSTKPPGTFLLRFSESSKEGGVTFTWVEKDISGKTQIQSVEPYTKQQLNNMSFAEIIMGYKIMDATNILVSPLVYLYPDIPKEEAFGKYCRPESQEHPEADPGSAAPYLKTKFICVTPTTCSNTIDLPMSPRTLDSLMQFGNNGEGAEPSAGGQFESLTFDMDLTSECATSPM
T3 sequence (P42227 2-770 limits assumed, one chain of several): as the sequence (P42227 2-770 limits assumed) above

For `[Cl][Pt]([Cl])([Cl])[Cl]` [platinum (IV) chloride], the “Level of DNA-binding activity of Stat3 (EMSA)” value on Stat3:Stat3 was “disrupts DNA-binding activity of Stat3”. Also, the “Tumor size, melanoma tumors” value in the test on B16 melanoma is listed as “complete regression”. The “Tumor size, colon tumors” value in the test with CT26 colon tumors was “complete regression”. In addition, the “Constitutively-active Stat3 in treated tumors (DNA-binding activity by EMSA)” value at Stat3 [1] is listed as “strongly attenuated”.

For `N.N.[Cl][Pt][Cl]` [Cisplatin, reference compound], the “Inhibition of constitutive Stat3 activation in treated cells (EMSA of nuclear extracts)” value with Stat3 [2] was “modest or negligible”.

Broadly, the pIC50 is the IC50 on a negative log10 scale, so that one unit is a factor of ten. As for `[Cl][Pt]1([Cl])[NH]CC[NH]1` [ISS CPA-3], the “Level of DNA-binding activity of Stat3 (EMSA)” value on Stat3:Stat3 is “dose-dependent reduction”. The pIC50 is 5.24 on Stat3:Stat3 (nuclear extracts pre-incubated 30 min at room temperature, read-out: IC50 for disruption of STAT DNA-binding activity in vitro, Stat3:Stat3); 4.57 on Stat1:Stat3; 5.08 on Stat1:Stat1. Moreover, the “Level of DNA-binding activity of Stat1 (EMSA)” value at Stat1:Stat1 (EGF-stimulated fibroblast nuclear extracts, 30 min preincubation, hSIE probe, FIG. 1A) is reported as “dose-dependent reduction”. Further, the “Inhibitory effect on Stat5 DNA-binding activity (EMSA)” value with Stat5 is reported as “much reduced inhibitory effect”. The “Inhibition of constitutive Stat3 activation in treated cells (EMSA of nuclear extracts)” value in the test with Stat3 [2] was “modest or negligible”.
